Reference: patent US20090042964A1, “AMINO-5-[SUBSTITUTED-4-(DIFLUOROMETHOXY)PHENYL]-5-PHENYLIMIDAZOLONE COMPOUNDS AS BETA-SECRETASE INHIBITORS” (Wyeth, priority 2007, published 2009)

Biological target: human BACE1 (Homo sapiens, UniProt P56817)
Test: Fluorescent kinetic assay, evaluation of BACE1 binding affinity of test compounds
Type: biochemical
Details: 10 nM human BACE1, 25 μM substrate WABC-6, pH 4.5, room temperature; read-out: BACE1 IC50
Method in brief: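 Kinetic fluorescence assay: enzyme added last to inhibitor and substrate mix, reading started immediately; substrate at 100 μM working dilution (25 μL in 100 μL total). Buffer 66.7 mM Na-acetate pH 4.5 with 0.0667% CHAPS for inhibitor and enzyme dilutions; enzyme stock quantified at 280 nm.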

Sequence of human BACE1 (P56817 46-501): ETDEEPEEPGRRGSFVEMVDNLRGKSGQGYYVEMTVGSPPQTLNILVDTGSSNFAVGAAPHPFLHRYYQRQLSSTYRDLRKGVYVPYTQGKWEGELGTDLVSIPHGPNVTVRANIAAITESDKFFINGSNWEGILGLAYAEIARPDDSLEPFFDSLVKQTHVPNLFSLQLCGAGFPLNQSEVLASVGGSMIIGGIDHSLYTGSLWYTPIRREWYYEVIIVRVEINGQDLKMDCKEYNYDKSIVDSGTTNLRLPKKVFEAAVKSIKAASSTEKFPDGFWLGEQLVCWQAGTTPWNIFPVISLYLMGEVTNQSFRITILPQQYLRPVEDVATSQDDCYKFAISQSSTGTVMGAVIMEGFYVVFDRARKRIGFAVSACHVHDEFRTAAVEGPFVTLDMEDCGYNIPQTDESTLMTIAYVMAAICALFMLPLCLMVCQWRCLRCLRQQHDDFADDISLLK

Row | SMILES | IC50 [nM]
1 | CN1C(=O)[C@@](c2ccccc2)(c2ccc(OC(F)F)c(CCCl)c2)N=C1N [Example 144, (5R)-2-Amino-5-[3-(2-chloroethyl)-4-(difluoromethoxy)phenyl]-3-methyl-5-phenyl-dihydro-4H-imidazol-4-one] | > 1000
2 | CC(C)c1cc(C2(c3ccc(F)c(C#CC4CC4)c3)N=C(N)N(C)C2=O)ccc1OC(F)F (stereo not shown) [Example 145, 2-Amino-5-[3-(cyclopropylethynyl)-4-fluorophenyl]-5-[4-(difluoromethoxy)-3-isopropylphenyl]-3-methyl-3,5-dihydro-4H-imidazol-4-one] | < 100
3 | CCc1cc(C2(c3ccc(F)c(C#CC4CC4)c3)N=C(N)N(C)C2=O)ccc1OC(F)F (stereo not shown) [Example 146, 2-Amino-5-[3-(cyclopropylethynyl)-4-fluorophenyl]-5-[4-(difluoromethoxy)-3-ethylphenyl]-3-methyl-3,5-dihydro-4H-imidazol-4-one] | < 100
4 | CCc1cc([C@]2(c3ccc(F)c(C#CC4CC4)c3)N=C(N)N(C)C2=O)ccc1OC(F)F [Example 147, (5R)-2-Amino-5-[3-(cyclopropylethynyl)-4-fluorophenyl]-5-[4-(difluoromethoxy)-3-ethylphenyl]-3-methyl-3,5-dihydro-4H-imidazol-4-one] | < 100
5 | CCc1cc(C2(c3ccc(F)c(C#CCC(C)C)c3)N=C(N)N(C)C2=O)ccc1OC(F)F (stereo not shown) [Example 149, 2-Amino-5-[4-(difluoromethoxy)-3-ethylphenyl]-5-[4-fluoro-3-(4-methylpent-1-yn-1-yl)phenyl]-3-methyl-3,5-dihydro-4H-imidazol-4-one] | 110 to 1000
6 | CCc1cc([C@]2(c3ccc(F)c(C#CCC(C)C)c3)N=C(N)N(C)C2=O)ccc1OC(F)F [Example 150, (5R)-2-Amino-5-[4-(difluoromethoxy)-3-ethylphenyl]-5-[4-fluoro-3-(4-methylpent-1-yn-1-yl)phenyl]-3-methyl-3,5-dihydro-4H-imidazol-4-one] | < 100
7 | CCc1cc([C@@]2(c3ccc(F)c(C#CCC(C)C)c3)N=C(N)N(C)C2=O)ccc1OC(F)F [Example 151, (5S)-2-Amino-5-[4-(difluoromethoxy)-3-ethylphenyl]-5-[4-fluoro-3-(4-methylpent-1-yn-1-yl)phenyl]-3-methyl-3,5-dihydro-4H-imidazol-4-one] | > 1000
8 | CCc1cc(C2(c3ccc(F)c(C#CCOC)c3)N=C(N)N(C)C2=O)ccc1OC(F)F (stereo not shown) [Example 152, 2-Amino-5-[4-(difluoromethoxy)-3-ethylphenyl]-5-[4-fluoro-3-(3-methoxyprop-1-yn-1-yl)phenyl]-3-methyl-3,5-dihydro-4H-imidazol-4-one] | < 100
9 | CCc1cc(C2(c3ccc(F)c(C#CC(C)C)c3)N=C(N)N(C)C2=O)ccc1OC(F)F (stereo not shown) [Example 153, 2-Amino-5-[4-(difluoromethoxy)-3-ethylphenyl]-5-[4-fluoro-3-(3-methylbut-1-yn-1-yl)phenyl]-3-methyl-3,5-dihydro-4H-imidazol-4-one] | < 100
10 | CCc1cc([C@]2(c3ccc(F)c(C#CC(C)C)c3)N=C(N)N(C)C2=O)ccc1OC(F)F [Example 154, (5R)-2-Amino-5-[4-(difluoromethoxy)-3-ethylphenyl]-5-[4-fluoro-3-(3-methylbut-1-yn-1-yl)phenyl]-3-methyl-3,5-dihydro-4H-imidazol-4-one] | < 100
11 | CCc1cc([C@@]2(c3ccc(F)c(C#CC(C)C)c3)N=C(N)N(C)C2=O)ccc1OC(F)F [Example 155, (5S)-2-Amino-5-[4-(difluoromethoxy)-3-ethylphenyl]-5-[4-fluoro-3-(3-methylbut-1-yn-1-yl)phenyl]-3-methyl-3,5-dihydro-4H-imidazol-4-one] | 110 to 1000
12 | CCc1cc([C@]2(c3ccc(F)c(C#CCOC)c3)N=C(N)N(C)C2=O)ccc1OC(F)F [Example 156, (5R)-2-Amino-5-[4-(difluoromethoxy)-3-ethylphenyl]-5-[4-fluoro-3-(3-methoxyprop-1-yn-1-yl)phenyl]-3-methyl-3,5-dihydro-4H-imidazol-4-one] | < 100
13 | CCc1cc([C@@]2(c3ccc(F)c(C#CCOC)c3)N=C(N)N(C)C2=O)ccc1OC(F)F [Example 157, (5S)-2-Amino-5-[4-(difluoromethoxy)-3-ethylphenyl]-5-[4-fluoro-3-(3-methoxyprop-1-yn-1-yl)phenyl]-3-methyl-3,5-dihydro-4H-imidazol-4-one] | 110 to 1000
14 | CCc1cc(C2(c3ccc(F)c(C#CCF)c3)N=C(N)N(C)C2=O)ccc1OC(F)F (stereo not shown) [Example 159, 2-Amino-5-[4-(difluoromethoxy)-3-ethylphenyl]-5-[4-fluoro-3-(3-fluoroprop-1-yn-1-yl)phenyl]-3-methyl-3,5-dihydro-4H-imidazol-4-one] | < 100
15 | CCc1cc([C@]2(c3ccc(F)c(C#CCF)c3)N=C(N)N(C)C2=O)ccc1OC(F)F [Example 162, (5R)-2-Amino-5-[4-(difluoromethoxy)-3-ethylphenyl]-5-[4-fluoro-3-(3-fluoroprop-1-yn-1-yl)phenyl]-3-methyl-3,5-dihydro-4H-imidazol-4-one] | < 100
16 | CCc1cc([C@@]2(c3ccc(F)c(C#CCF)c3)N=C(N)N(C)C2=O)ccc1OC(F)F [Example 163, (5S)-2-Amino-5-[4-(difluoromethoxy)-3-ethylphenyl]-5-[4-fluoro-3-(3-fluoroprop-1-yn-1-yl)phenyl]-3-methyl-3,5-dihydro-4H-imidazol-4-one] | 110 to 1000

Results, then the molecule that gave them:

Row | IC50 [nM] | SMILES
17 | 110 to 1000 | CCc1cc([C@@]2(c3ccc(F)c(C#CC4CC4)c3)N=C(N)N(C)C2=O)ccc1OC(F)F [Example 148, (5S)-2-Amino-5-[3-(cyclopropylethynyl)-4-fluorophenyl]-5-[4-(difluoromethoxy)-3-ethylphenyl]-3-methyl-3,5-dihydro-4H-imidazol-4-one]
18 | < 100 | CCc1cc(C2(c3cccc(C#CCF)c3)N=C(N)N(C)C2=O)ccc1OC(F)F (stereo not shown) [Example 158, 2-Amino-5-[4-(difluoromethoxy)-3-ethylphenyl]-5-[3-(3-fluoroprop-1-yn-1-yl)phenyl]-3-methyl-3,5-dihydro-4H-imidazol-4-one]
19 | > 1000 | CCc1cc([C@@]2(c3cccc(C#CCF)c3)N=C(N)N(C)C2=O)ccc1OC(F)F [Example 160, (5R)-2-Amino-5-[4-(difluoromethoxy)-3-ethylphenyl]-5-[3-(3-fluoroprop-1-yn-1-yl)phenyl]-3-methyl-3,5-dihydro-4H-imidazol-4-one]
20 | < 100 | CCc1cc([C@]2(c3cccc(C#CCF)c3)N=C(N)N(C)C2=O)ccc1OC(F)F [Example 161, (5S)-2-Amino-5-[4-(difluoromethoxy)-3-ethylphenyl]-5-[3-(3-fluoroprop-1-yn-1-yl)phenyl]-3-methyl-3,5-dihydro-4H-imidazol-4-one]
21 | < 100 | C#Cc1cccc(C2(c3ccc(OC(F)F)c(C4CC4)c3)N=C(N)N(C)C2=O)c1 (stereo not shown) [Example 167, 2-amino-4-(3-cyclopropyl-4-(difluoromethoxy)phenyl)-4-(3-ethynylphenyl)-1-methyl-1H-imidazol-5(4H)-one]
22 | < 100 | CC#Cc1cccc(C2(c3ccc(OC(F)F)c(C4CC4)c3)N=C(N)N(C)C2=O)c1 (stereo not shown) [Example 168, 2-amino-4-(3-cyclopropyl-4-(difluoromethoxy)phenyl)-1-methyl-4-(3-(prop-1-ynyl)phenyl)-1H-imidazol-5(4H)-one]
23 | < 100 | CCC#Cc1cccc(C2(c3ccc(OC(F)F)c(C4CC4)c3)N=C(N)N(C)C2=O)c1 (stereo not shown) [Example 171, 2-amino-4-(3-(but-1-ynyl)phenyl)-4-(3-cyclopropyl-4-(difluoromethoxy)phenyl)-1-methyl-1H-imidazol-5(4H)-one]
24 | 110 to 1000 | CCCC#Cc1cccc(C2(c3ccc(OC(F)F)c(C4CC4)c3)N=C(N)N(C)C2=O)c1 (stereo not shown) [Example 172, 2-amino-4-(3-cyclopropyl-4-(difluoromethoxy)phenyl)-1-methyl-4-(3-(pent-1-ynyl)phenyl)-1H-imidazol-5(4H)-one]
25 | < 100 | CC(C)C#Cc1cccc(C2(c3ccc(OC(F)F)c(C4CC4)c3)N=C(N)N(C)C2=O)c1 (stereo not shown) [Example 173, 2-amino-4-(3-cyclopropyl-4-(difluoromethoxy)phenyl)-1-methyl-4-(3-(3-methylbut-1-ynyl)phenyl)-1H-imidazol-5(4H)-one]
26 | < 100 | CN1C(=O)C(c2cccc(C#CC3CC3)c2)(c2ccc(OC(F)F)c(C3CC3)c2)N=C1N (stereo not shown) [Example 176, 2-amino-4-(3-cyclopropyl-4-(difluoromethoxy)phenyl)-4-(3-(cyclopropylethynyl)phenyl)-1-methyl-1H-imidazol-5(4H)-one]
27 | < 100 | CN1C(=O)C(c2cccc(C#CC(C)(C)O)c2)(c2ccc(OC(F)F)c(C3CC3)c2)N=C1N (stereo not shown) [Example 179, 2-amino-4-(3-cyclopropyl-4-(difluoromethoxy)phenyl)-4-(3-(3-hydroxy-3-methylbut-1-ynyl)phenyl)-1-methyl-1H-imidazol-5(4H)-one]
28 | < 100 | COCC#Cc1cccc(C2(c3ccc(OC(F)F)c(C4CC4)c3)N=C(N)N(C)C2=O)c1 (stereo not shown) [Example 180, 2-amino-4-(3-cyclopropyl-4-(difluoromethoxy)phenyl)-4-(3-(3-methoxyprop-1-ynyl)phenyl)-1-methyl-1H-imidazol-5(4H)-one]
29 | < 100 | COCCC#Cc1cccc(C2(c3ccc(OC(F)F)c(C4CC4)c3)N=C(N)N(C)C2=O)c1 (stereo not shown) [Example 183, 2-amino-4-(3-cyclopropyl-4-(difluoromethoxy)phenyl)-4-(3-(4-methoxybut-1-ynyl)phenyl)-1-methyl-1H-imidazol-5(4H)-one]
30 | < 100 | COCCCC#Cc1cccc(C2(c3ccc(OC(F)F)c(C4CC4)c3)N=C(N)N(C)C2=O)c1 (stereo not shown) [Example 186, 2-amino-4-(3-cyclopropyl-4-(difluoromethoxy)phenyl)-4-(3-(5-methoxypent-1-ynyl)phenyl)-1-methyl-1H-imidazol-5(4H)-one]
31 | 110 to 1000 | CN1C(=O)C(c2cccc(C3CC3)c2)(c2ccc(OC(F)F)c(C3CC3)c2)N=C1N (stereo not shown) [Example 187, 2-amino-4-(3-cyclopropyl-4-(difluoromethoxy)phenyl)-4-(3-cyclopropylphenyl)-1-methyl-1H-imidazol-5(4H)-one]
